This experiment concerns Human monocyte derived dendritic cells. Kind of experiment: LPS-stimulated monocyte-derived dendritic cell IL-12 release, ELISA. Format: cell-based. Particulars: 1 µM of PGE2, 10 ng/mL LPS, approx. 18 hr. The source says: Following stimulation through the toll-like receptors TLR, DCs express and release proinflammatory cytokines and chemokines and may induce activation and proliferation of naïve T cells. The binding of Nileprost to the EP receptor inhibits TLR4 ligand (LPS)-stimulated IL-12 release. Therefore, Nileprost skews the CD4 T cell differentiation to a Th-2 lineage.
IL-12 is a 75 kDa glycoprotein heterodimer (p70) composed of two genetically unrelated subunits linked by a disulfide bond. Enzyme-linked immunosorbant assays based on antibodies specific to IL-12 p70 are commercially available. Standards and samples are pipetted into the wells of a microplate. An antibody specific to human IL-12 is added to the wells. A substrate is added to the wells and color develops in proportion to the amount of IL-12 bound. The intensity of the color is measured.
Human monocyte-derived dendritic cells were isolated from human donors using a Ficoll density gradient and residual erythrocytes were removed by selective lysis. CD14 MicroBeads were used for separation of human cells based on the expression of the CD14 antigen. The dendritic cells were cultured at approximately 1.5×10^6 cells per mL in RPMI1640 with fetal bovine serum, 200 ng/mL GM-CSF (Leukine) and 10 ng/mL IL-4. The cells grew for a period of 3 days and then the media was changed. 10 ng/mL LPS was used to activate the cells. 1 μM of Nileprost and 1 µM of PGE2 were added during the LPS stimulation. Cells were incubated for approximately 18 hr at 37° C. IL-12 released during activation was measured by ELISA.

Regarding `CCCCC[C@H](O)/C=C/[C@H]1[C@H](O)CC(=O)[C@@H]1C/C=C\CCCC(=O)O` [PGE2, Prostaglandin E2, reference compound], the “Inhibition (percent) of IL-12 release” value by setting is: (Donor 1) 80%; (Donor 2) 33%; (Donor 3) 83%; (Donor 4) 72%.

The values above are taken from patent US20080021099A1, “5-Cyano-prostacyclin derivatives as agents for the treatment of autoimmune disease” (Bayer Schering Pharma Aktiengesellschaft, priority 2006, published 2008).
